Experimental data reported in patent US20070117743A1, “New antitumoral compounds” (priority 2003, published 2007).
Where a SMILES comes first, the peptide text is derived from it. Bridges are numbered along the chain shown (N, C = ends). [ ]: non-standard residue; d: D form. The star is where a group is joined. d(aIle) = CC[C@H](C)[C@@H](N)C(=O)O; d(aThr) = C[C@@H](O)[C@@H](N)C(=O)O; Hexanoyl(5-Me) = CC(C)CCCC(=O)*; Orn = NCCC[C@H](N)C(=O)O; Dhb = C/C=C(\N)C(=O)O

Legend:
Assay type in all cases: cell-based, human
[1] = test system: HeLa-APL; test: SRB colorimetric assay of cell growth and viability, HeLa-APL; settings: 48 hours exposure; for CC50: read-out: LC50 HELA-APL
[2] = test system: SK-MEL-28; test: SRB colorimetric assay of cell growth and viability, SK-MEL-28; settings: 48 hours exposure; for CC50: read-out: LC50 MEL-28
[3] = test system: HeLa; test: SRB colorimetric assay of cell growth and viability, HeLa; settings: 48 hours exposure; for CC50: read-out: LC50 HELA
[4] = test system: A-549; test: SRB colorimetric assay of cell growth and viability, A-549; settings: 48 hours exposure; for GI50: read-out: GI50 A-549; for CC50: read-out: LC50 A-549
[5] = test system: HT-29; test: SRB colorimetric assay of cell growth and viability, HT-29; settings: 48 hours exposure; for GI50: read-out: GI50 HT-29; for CC50: read-out: LC50 HT-29
[6] = test system: K-562; test: SRB colorimetric assay of cell growth and viability, K-562; settings: 48 hours exposure; for CC50: read-out: LC50 K-562
[7] = test system: PANC-1; test: SRB colorimetric assay of cell growth and viability, PANC-1; settings: 48 hours exposure; for CC50: read-out: LC50 PANC-1
[8] = test system: IGROV-ET; test: SRB colorimetric assay of cell growth and viability, IGROV-ET; settings: 48 hours exposure; for CC50: read-out: LC50 IGROV-ET
[9] = test system: LoVo-Dox; test: SRB colorimetric assay of cell growth and viability, LoVo-Dox; settings: 48 hours exposure; for CC50: read-out: LC50 LOVO-DOX
In short: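 SRB staining (0.4% wt/vol in 1% acetic acid, 10 min, room temperature) of cells fixed with 50% TCA follows a 48-hour exposure to compound. Plating density is 5×10^3 cells/well, and the OD is taken at 490 nm.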

[10] = test system: LoVo; test: SRB colorimetric assay of cell growth and viability, LoVo; settings: 48 hours exposure; for CC50: read-out: LC50 LOVO
[11] = test system: IGROV-1; test: SRB colorimetric assay of cell growth and viability, IGROV-1; settings: 48 hours exposure
[12] = test system: DU-145; test: SRB colorimetric assay of cell growth and viability, DU-145; settings: 48 hours exposure

| SMILES | GI50 [1] [µM] | TGI HELA-APL [1] [Molar] | CC50 [1] [µM] | GI50 [2] [µM] | TGI MEL-28 [2] [Molar] | CC50 [2] [µM] | GI50 [3] [µM] | TGI HELA [3] [Molar] | CC50 [3] [µM] | TGI A-549 [4] [Molar] | GI50 [4] [µM] | CC50 [4] [µM] | TGI HT-29 [5] [Molar] | GI50 [5] [µM] | CC50 [5] [µM] | GI50 [6] [µM] | TGI K-562 [6] [Molar] | CC50 [6] [µM] | GI50 [7] [µM] | TGI PANC-1 [7] [Molar] | other results |
| --- | --- | --- | --- | --- | --- | --- | --- | --- | --- | --- | --- | --- | --- | --- | --- | --- | --- | --- | --- | --- | --- |
| C/C=C1\NC(=O)[C@H](Cc2ccccc2)NC(=O)[C@@H](C(C)C)NC(=O)[C@@H]([C@@H](C)CC)NC(=O)[C@H](NC(=O)[C@H](NC(=O)[C@H](CCCN)NC(=O)[C@H]2CCCN2C(=O)[C@H](NC(=O)[C@@H](NC(=O)[C@H](CC(C)C)NC(=O)CCCC(C)C)C(C)C)C(C)C)[C@@H](C)CC)[C@@H](C)OC(=O)[C@H](C(C)C)NC1=O [Compound 54, [Leu^12, noD-Val^13]-KF] ({Hexanoyl(5-Me)}-LV[dV][dP][Orn][d(aIle)][d(aThr)][d(aIle)][dV]F[Dhb]V; ester 7-C) | 1.08 | 2.04E−06 | 3.88 | 1.24 | 2.20E−06 | 3.9 | 0.841 | 1.73E−06 | 3.54 | 2.19E−06 | 1.14 | 4.23 | 3.51E−06 | 1.88 | 6.55 | 1.31 | 2.40E−06 | 4.41 | 0.863 | 2.01E−06 | CC50 [7]: 4.68 µM; GI50 [8]: 1.45 µM; TGI IGROV-ET [8]: 2.57E−06 Molar; CC50 [8]: 4.57 µM; GI50 [9]: 1.55 µM; TGI LOVO-DOX [9]: 2.88E−06 Molar; CC50 [9]: 5.37 µM; GI50 [10]: 1.08 µM; TGI LOVO [10]: 2.14E−06 Molar; CC50 [10]: 4.21 µM; GI50 [11]: 1.11 µM; LC50 (concentration causing 50% net cell killing) [11]: 3.92 µM; TGI IGROV [11]: 2.09E−06 Molar; GI50 [12]: 1.49 µM; LC50 (concentration causing 50% net cell kill) [12]: 4.61 µM; TGI DU-145 [12]: 2.62E−06 Molar |
| C/C=C1\NC(=O)[C@H](Cc2ccccc2)NC(=O)[C@@H](C(C)C)NC(=O)[C@@H]([C@@H](C)CC)NC(=O)[C@H](NC(=O)[C@H](NC(=O)[C@H](CCCN)NC(=O)[C@H]2CCCN2C(=O)[C@H](NC(=O)[C@@H](NC(=O)[C@@H]2CCCN2C(=O)CCCC(C)C)C(C)C)C(C)C)[C@@H](C)CC)[C@@H](C)OC(=O)[C@H](C(C)C)NC1=O [Compound 55, [Pro^12, noD-Val^13]-KF] ({Hexanoyl(5-Me)}-PV[dV][dP][Orn][d(aIle)][d(aThr)][d(aIle)][dV]F[Dhb]V; ester 7-C) | 7.27 | 7.27E−06 | 7.27 | 7.27 | 7.27E−06 | 7.27 | 7.27 | 7.27E−06 | 7.27 | 7.27E−06 | 7.27 | 7.27 | 7.27E−06 | 7.27 | 7.27 | 7.27 | 7.27E−06 | 7.27 | 7.27 | 7.27E−06 | CC50 [7]: 7.27 µM; GI50 [8]: 7.27 µM; TGI IGROV-ET [8]: 7.27E−06 Molar; CC50 [8]: 7.27 µM; GI50 [9]: 7.27 µM; TGI LOVO-DOX [9]: 7.27E−06 Molar; CC50 [9]: 7.27 µM; GI50 [10]: 7.27 µM; TGI LOVO [10]: 7.27E−06 Molar; CC50 [10]: 7.27 µM; GI50 [11]: 7.27 µM; LC50 (concentration causing 50% net cell killing) [11]: 7.27 µM; TGI IGROV [11]: 7.27E−06 Molar; GI50 [12]: 7.27 µM; LC50 (concentration causing 50% net cell kill) [12]: 7.27 µM; TGI DU-145 [12]: 7.27E−06 Molar |
